# Data from PubChem BioAssay (NCI).
# Where “and” joins values, the source holds several entries; their conditions need not be identical. Identical values can stand only once.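 Each compound was tested at five concentrations against cells in 96-well plates for 48 hours. GI50 is the concentration that inhibits growth by half. The concentration for full growth arrest is given as TGI.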
# Assays:
# Experiment in all cases: growth of human tumour cells (NCI), 48 h
# MDA-MB-231 breast = system: MDA-MB-231 breast
# SR leukemia = system: SR leukemia
# NCI-H226 lung = system: NCI-H226 lung
# MCF7 breast = system: MCF7 breast
# SF-268 CNS = system: SF-268 CNS
# PC-3 prostate = system: PC-3 prostate
# T-47D breast = system: T-47D breast
# CAKI-1 renal = system: CAKI-1 renal
# RPMI-8226 leukemia = system: RPMI-8226 leukemia
# 786-0 renal = system: 786-0 renal
SMILES,GI50 (MDA-MB-231 breast),TGI (MDA-MB-231 breast),GI50 (SR leukemia),TGI (SR leukemia),GI50 (NCI-H226 lung),TGI (NCI-H226 lung),GI50 (MCF7 breast),TGI (MCF7 breast),GI50 (SF-268 CNS),TGI (SF-268 CNS) [µM],GI50 (PC-3 prostate),TGI (PC-3 prostate),GI50 (T-47D breast),TGI (T-47D breast),GI50 (CAKI-1 renal),TGI (CAKI-1 renal),GI50 (RPMI-8226 leukemia),TGI (RPMI-8226 leukemia),GI50 (786-0 renal),TGI (786-0 renal)
Nc1nc2c(nnn2C2OC(CO)C(O)C2O)c(=O)[nH]1 (centres undefined),4.48 µM,> 100 µM,1.16 µM,> 100 µM,6.31 µM,> 100 µM,1.42 µM,> 100 µM,3.15 µM,> 100,0.617 µM,> 44 µM,2.87 µM,> 100 µM,0.567 µM,> 100 µM,2.76 µM,> 100 µM,0.941 µM,> 100 µM
Cc1[nH]c(C(=O)Nc2ccccc2OC2CCNCC2)c(Cl)c1Cl,0.895 µM,1.76 µM,1.46 µM,5.69 µM,0.966 µM,1.96 µM,0.882 µM,1.68 µM,0.76 µM,1.65,1.39 µM,5.23 µM,0.987 µM,2.09 µM,0.781 µM,2.11 µM,1.04 µM,2.59 µM,0.817 µM,1.57 µM
COC(C(=O)C(O)C(C)O)C1Cc2cc3cc(OC4CC(OC5CC(O)C(O)C(C)O5)C(O)C(C)O4)c(C)c(O)c3c(O)c2C(=O)C1OC1CC(OC2CC(O)C(OC3CC(C)(O)C(O)C(C)O3)C(C)O2)C(O)C(C)O1 (centres undefined),0.0279 µg/mL and 0.032 µg/mL,112 µg/mL and 43.5 µg/mL,0.0112 µg/mL and 1.91 µg/mL,112 µg/mL and > 150 µg/mL,0.0112 µg/mL and 0.000196 µg/mL,,0.00053 µg/mL,0.73 µg/mL,0.0167 µg/mL and 0.00113 µg/mL,,0.0194 µg/mL and 0.0396 µg/mL,,0.0175 µg/mL,15.8 µg/mL,0.0112 µg/mL and 0.000362 µg/mL,0.0484 µg/mL and 0.0414 µg/mL,0.0112 µg/mL and 0.00164 µg/mL,0.507 µg/mL and 0.191 µg/mL,0.0112 µg/mL and 0.0152 µg/mL,112 µg/mL and 64.7 µg/mL
CCOc1ccc2c(C)cc(=O)oc2c1,,> 100 µM,,> 100 µM,,> 100 µM,,> 100 µM,,> 100,,> 100 µM,,> 100 µM,,> 100 µM,,> 100 µM,,> 100 µM
O=S(=O)(c1ccc(Br)cc1)N1CCN(S(=O)(=O)c2ccc(Br)cc2)CC1,,> 100 µM,,> 100 µM,,> 100 µM,,> 100 µM,,> 100,,> 100 µM,,> 100 µM,,> 100 µM,,> 100 µM,,> 100 µM
COc1ccc2c(Cc3c4ccccc4cc4ccccc34)cncc2c1O,,8.95 µM,,0.551 µM,,11.7 µM,,> 38.2 µM,,> 100,,> 59.9 µM,,> 71.7 µM,,36.3 µM,,17 µM,,23.4 µM
c1cc(CSSCc2ccncc2)ccn1,,> 100 µM,,30.3 µM,,> 85.5 µM,,> 100 µM,,> 94.3,,> 100 µM,,> 100 µM,,> 100 µM,,> 65.3 µM,,> 100 µM
CC[C@@H](C(=O)[C@H](C)[C@H](O)[C@@H](C)[C@H]1O[C@H]([C@@H](CC)C(=O)O)CC[C@H]1C)C1O[C@]2(C=C[C@@H](O)[C@]3(CC[C@@](C)([C@H]4CC[C@](O)(CC)[C@H](C)O4)O3)O2)[C@H](C)C[C@@H]1C (some centres undefined),0.586 µM,6.71 µM,0.0827 µM,5.73 µM,0.598 µM,5.83 µM,0.148 µM,11.9 µM,1.14 µM,16.2,0.0692 µM,49 µM,0.125 µM,16.7 µM,0.637 µM,13.9 µM,0.171 µM,3.07 µM,1.26 µM,21.2 µM
C/C(=N\NC(=S)N1CCN(C2CCCCCC2)CC1)c1ccccn1,,2.85 µM,,1.06 µM,2.88 µM,2.7 µM,,2.05 µM,,5.5,,2.07 µM,,2.22 µM,0.155 µM,3.5 µM,< 0.001 µM,,0.0121 µM,3.58 µM and 1.95 µM
CCCCCCCCCCC/C=C\C[C@H](O)C/C=C1/C(=O)C=C[C@@H]1C/C=C\CCCC(=O)OC,0.895 µM,2.61 µM,0.72 µM,3.97 µM,0.732 µM,1.76 µM,0.754 µM,4.08 µM,0.939 µM,3.97,0.836 µM,2.76 µM,0.796 µM,3.44 µM,1.07 µM,5.62 µM,0.534 µM,1.62 µM,1.03 µM,3.98 µM
CCCC[n+]1c(/C=C\c2c(OC)cc(OC)cc2OC)ccc2ccccc21,1.42 µM,4.62 µM,0.306 µM,30.3 µM,1.92 µM,12.6 µM,0.494 µM,4.73 µM,2.03 µM,10.3,0.737 µM,5.71 µM,0.205 µM,2.06 µM,2.73 µM,11.5 µM,0.279 µM,2.73 µM,2.84 µM,13 µM
O=C(O)C1C2C=CC(C2)C1C(=O)O (centres undefined),> 100 µM,> 100 µM,> 100 µM,> 100 µM,> 100 µM,> 100 µM,> 100 µM,> 100 µM,> 100 µM,> 100,> 100 µM,> 100 µM,> 100 µM,> 100 µM,> 100 µM,> 100 µM,> 100 µM,> 100 µM,> 100 µM,> 100 µM
c1ccc(Nc2nc(-c3ccccn3)cs2)nc1,0.934 µM,> 100 µM,0.308 µM,7.95 µM,1 µM,> 63.1 µM,0.508 µM,> 100 µM,0.346 µM,> 45.5,0.568 µM,> 89.9 µM,0.698 µM,> 100 µM,0.0992 µM,2.12 µM,0.548 µM,76.2 µM,0.344 µM,> 38.2 µM
CSCC[C@H](NC(=O)[C@H](CC(C)C)NC(=O)[C@@H](Cc1ccccc1)NC(=O)CNC(=O)[C@@H](NC(=O)[C@H](C)NC(=O)[C@H](Cc1c[nH]c2ccccc12)NC(=O)[C@H](CCC(N)=O)NC(=O)[C@H](N)CC(N)=O)C(C)C)C(N)=O,,> 12.5 µM,,10.7 µM,,> 12.5 µM,,> 12.5 µM,,> 12.5,,> 12.5 µM,,> 12.5 µM,,> 12.5 µM,,> 12.5 µM,,> 12.5 µM
CCC(C)[C@H](NC(=O)NC(=O)NC(=O)CI)C(=O)OC (some centres undefined),13.6 µM,30.7 µM,1.37 µM,4.15 µM,3.84 µM,19.1 µM,3.02 µM,12.9 µM,12.6 µM,28.5,12.2 µM,26.7 µM,10 µM,34.8 µM,1.41 µM,2.78 µM,3.16 µM,9.27 µM,11.3 µM,23.4 µM
NC(=S)N/N=C/c1ccc(N)cn1,,> 10 µM,,> 10 µM,,> 10 µM,,> 10 µM,,> 10,,> 10 µM,,> 10 µM,,> 10 µM,,> 10 µM,,> 10 µM
O=C1C=CC(=Nc2ccccc2)c2ccccc21,,11.3 µM,,37.1 µM,,28.8 µM,,21.4 µM,,24.8,,22.6 µM,,47.9 µM,,38.2 µM,,38.3 µM,,24.7 µM
CN1CC[C@]2(c3cccc(O)c3)CC(=O)/C(=C/c3ccccc3)[C@H]1C2,,8.08 µM,1.35 µM,5.9 µM,9.03 µM,28.6 µM,,10.4 µM,6.04 µM,18.2,3.22 µM,12.9 µM,2.57 µM,7.44 µM,,9.93 µM,2.1 µM,> 22 µM,3.21 µM,10.1 µM
Cc1cc2nc3ccc(=[N+](C)C)cc-3sc2cc1N,0.739 µM and 0.284 µM,7.51 µM and 7.94 µM and 1.33 µM,0.419 µM and 0.544 µM,,2.11 µM and 1.82 µM,9.05 µM and 30.9 µM and 7.69 µM,0.326 µM and 0.405 µM,1.87 µM and 6.05 µM and 2.79 µM,0.351 µM and 0.956 µM,,0.121 µM and 0.173 µM,2.65 µM and 7.2 µM and 3.43 µM,0.475 µM and 0.722 µM,4.52 µM and 28.8 µM and 6.75 µM,2.3 µM and 1.56 µM,12.8 µM and > 55.9 µM and 10.2 µM,0.218 µM and 0.0867 µM,,1.82 µM and 0.76 µM,10.1 µM and 17.7 µM and 4.3 µM
N#CC1(Nc2ccc(-c3ccc(NC4(C#N)CCCC4)cc3)cc2)CCCC1,,> 100 µM,,> 100 µM,,> 100 µM,,> 100 µM,,> 100,,> 100 µM,,> 100 µM,,> 100 µM,,> 100 µM,,> 100 µM
